The text below walks through data of article PMC3665348 (Biochemical pharmacology, 2012).

For the assay, the target named is T1, CYP1A1 (Homo sapiens, UniProt P04798).
T1 sequence (P04798 1-512): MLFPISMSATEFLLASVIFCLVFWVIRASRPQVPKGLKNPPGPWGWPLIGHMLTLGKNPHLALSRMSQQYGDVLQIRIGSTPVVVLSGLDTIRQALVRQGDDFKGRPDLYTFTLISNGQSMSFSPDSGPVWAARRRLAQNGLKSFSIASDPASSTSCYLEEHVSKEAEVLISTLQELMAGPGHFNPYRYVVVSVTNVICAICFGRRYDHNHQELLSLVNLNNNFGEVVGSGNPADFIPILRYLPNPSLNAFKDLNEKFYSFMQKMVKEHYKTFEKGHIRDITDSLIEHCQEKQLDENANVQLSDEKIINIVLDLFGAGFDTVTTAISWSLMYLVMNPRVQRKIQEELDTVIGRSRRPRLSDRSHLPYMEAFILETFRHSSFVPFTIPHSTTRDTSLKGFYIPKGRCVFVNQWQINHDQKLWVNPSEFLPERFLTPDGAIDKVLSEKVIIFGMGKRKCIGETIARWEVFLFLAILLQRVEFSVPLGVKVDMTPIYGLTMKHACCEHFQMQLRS
Description: procainamide hydroxylamine. The format is biochemical. Conditions: 20 μM procainamide, NADPH 2 mM, MgCl2 2 mM, 20 mM PBS pH 7.4, 37°C, 30 min.

Turning to `CCN(CC)CCNC(=O)c1ccc(N)cc1` [I, Procainamide], the “procainamide hydroxylamine (VI) formation, UPLC-ESI-QTOFMS” value was “CYP1A1 also had some activity”.
